Where a name gives a salt, the structure may show the parent alone.
Tested on: proteasome
Experiment: Cellular proteasome inhibition test: accumulation of 4Ub-Luc reporter (luciferase activity) in DLD-1 4Ub-Luc cell line
Type: cell-based, human
Conditions: DLD-1 4Ub-Luc cells; for relative induction factor (IF % luminescence) versus epoxomicin: 8 hours, epoxomicin = 100%
Method: Biological tests were carried out according to protocols described in the following articles: Ausseil F. et al. J. Biomol Screen. 2007, 12, 106-116 and Vandenberghe I. et al. Biochemical Pharmacology 2008, 76, 453-462.
In order to select novel proteasome inhibitor compounds, it is necessary to indirectly measure the activity of this proteasome within cells. To this end, we constructed a stable cell line, DLD-1 4Ub-Luc, arising from a human colon cancer cell line, which produces a chimeric reporter protein called 4Ub-Luc. This protein is a fusion between a 4-ubiquitin (4Ub) label and luciferase (Luc). This label is capable to direct every proteins that carry it toward the proteasome. The 4Ub-Luc protein is thus efficiently degraded by the proteasome, in contrast to the “wild” non-fused Luc protein. When the DLD-1 4Ub-Luc cell line is treated with a proteasome inhibitor, the fusion protein is much less efficiently degraded and accumulates in the cell. This accumulation is detected by an increase in luciferase activity in the treated extract compared to the extract from untreated cells. The control consists of verifying that the inhibitor has no effect on accumulation of the wild Luc protein produced by the stable DLD-1 RF cell line. For both cell lines and for each product an induction factor is determined for the product tested (or the reference) corresponding to the ratio between the luciferase activities measured in cells treated with this product (or the reference) and cells treated with solvent alone.
The product's activity is then defined by its relative induction factor, i.e., the ratio of its induction factor (IF % luminescence) to that of the reference molecule epoxomicin (IF=100%; see data presented in the table below).
Thus, the test established by Pierre-Fabre is a cellular test that has the advantage, compared to a purely enzymatic test, of detecting only products capable of penetrating the cell.
Two cell lines are used for this test: DLD-1 RF and DLD-1 4Ub-Luc. The culture medium used is as follows: • MEM • 5% fetal calf serum • 5 ml of penicillin-streptomycin • 2.5 ml of FUNGIZONE® (Amphotericin B) • 10 ml of […]
Day 1: Inoculate white 96-well culture-treated plates (PerkinElmer White ViewPlate, product no. 6005181) with 100 μl of 1·10^5 c/ml cell suspension per well. Incubate for 24 hours so that the cells adhere. On each plate five columns will be inoculated with DLD-1 4Ub-Luc and five others with DLD-1 RF according to diagram 1 below.
Day 2: Remove the medium by turning the plates upside down on cotton, and then carry out the treatment with the compounds of the invention, with solvent alone or with a reference compound such as epoxomicin. […]
The columns are paired (examples 2 and 8, 3 and 9, 4 and 10 and 5 and 11) and treated with the same compound. Columns 6 and 7 receive the experimental control, namely 0.1% DMSO in culture medium for wells B, C, D, and E of columns 6 and 7, and the positive control (10^−7 M epoxomicin) in wells F and G.
After incubation, turn the plate upside down on cotton to empty the wells, rinse with 50 μl of PBS to remove any trace of the cytotoxin tested and then add 50 μl of 5× passive lysis buffer (Promega, product no. E1941) diluted to ⅕ in water. Shake energetically using a plate shaker for 5 to 10 minutes at room temperature before freezing at −20° C.
Luciferase activity is measured using a Luciferase Assay System 10-Pack kit (Promega, product no. E1501).
On the day luciferase activity is to be measured, defrost the plates and wait until they have returned to room temperature. The optimal temperature for luciferase activity is 20-25° C.
Reconstitute the firefly luciferase substrate by defrosting the buffer and then adding 10 ml of buffer to the bottle containing the freeze-dried substrate. Wait until the solution is at room temperature before beginning the assay. […]

[1] = concentration tested 5 · 10^−6 M
[2] = concentration tested 5 · 10^−7 M
[3] = concentration tested 5 · 10^−6 M, hydrochloride
[4] = concentration tested 10^−5 M, hydrochloride
[5] = concentration tested 10^−6 M, hydrochloride

Row | Compound | relative induction factor (IF % luminescence) versus epoxomicin [1] [%] | relative induction factor (IF % luminescence) versus epoxomicin [2] [%] | relative induction factor (IF % luminescence) versus epoxomicin (concentration tested 10^−5 M) [%] | relative induction factor (IF % luminescence) versus epoxomicin (concentration tested 10^−6 M) [%] | relative induction factor (IF % luminescence) versus epoxomicin [3] [%] | relative induction factor (IF % luminescence) versus epoxomicin [4] [%] | relative induction factor (IF % luminescence) versus epoxomicin [5] [%] | induction factor of the reference (IF % luminescence) (reference molecule at 10^−7 M, set to IF=100%) [%]
1 | C=C(C(=O)[C@H](OC(=O)CCl)[C@@H](C)[C@H]1[C@@H](OC(C)=O)C[C@@]2(C)C3CCC4[C@H](C)C(=O)C=C[C@@]45C[C@@]35CC[C@]12C)[C@@H](C)COC(C)=O (stereo partly shown) [Compound 61, 22-chloroacetyl-26-acetyl-neoboutomellerone] | 21 | 23 | 6 | 64 | – | – | – | –
2 | C=C(C(=O)[C@H](OC(C)=O)[C@@H](C)[C@H]1[C@@H](OC(C)=O)C[C@@]2(C)C3CCC4[C@H](C)C(=O)C=C[C@@]45C[C@@]35CC[C@]12C)[C@@H](C)COC(=O)CN(C)C (stereo partly shown) [Compound 62, Neoboutomellerone 26-N-dimethyl glycinate] | 49 | – | 7 | 11 | – | – | – | –
3 | C=C(C(=O)[C@H](OC(C)=O)[C@@H](C)[C@H]1[C@@H](OC(C)=O)C[C@@]2(C)C3CCC4[C@H](C)C(=O)C=C[C@@]45C[C@@]35CC[C@]12C)[C@@H](C)COC(=O)CN(C)C (stereo partly shown) [Compound 63, neoboutomellerone 26-N-dimethyl glycinate hydrochloride] | – | 66 | – | – | 11 | 3 | 50 | –
4 | C=C(C(=O)[C@H](O)[C@@H](C)[C@H]1[C@@H](OC(C)=O)C[C@@]2(C)C3CCC4[C@H](C)C(=O)C=C[C@@]45C[C@@]35CC[C@]12C)[C@@H](C)COC(=O)CN(C)C (stereo partly shown) [Compound 64, 22-deacetyl-neoboutomellerone 26-N-dimethyl glycinate] | 35 | – | 7 | 22 | – | – | – | –
5 | C=C(C(=O)[C@H](O)[C@@H](C)[C@H]1[C@@H](OC(C)=O)C[C@@]2(C)C3CCC4[C@H](C)C(=O)C=C[C@@]45C[C@@]35CC[C@]12C)[C@@H](C)COC(=O)CN(C)C (stereo partly shown) [Compound 65, 22-deacetyl-neoboutomellerone 26-N dimethyl glycinate hydrochloride] | – | 1 | – | – | 34 | 4 | 17 | –
6 | C=C(C(=O)[C@H](O)[C@@H](C)[C@H]1[C@@H](OC(C)=O)C[C@@]2(C)[C@@H]3CC[C@H]4[C@H](C)C(=O)C=C[C@@]45C[C@@]35CC[C@]12C)[C@@H](C)COC(=O)CCN(CC)CC [Compound 66, 26-deacetyl-neoboutomellerone 26-N-diethyl-β-alaninate] | 9 | – | 2 | 13 | – | – | – | –
7 | C=C(C(=O)[C@H](OC(C)=O)[C@@H](C)[C@H]1[C@@H](OC(C)=O)C[C@@]2(C)C3CCC4[C@H](C)C(=O)C=C[C@@]45C[C@@]35CC[C@]12C)[C@@H](C)COC(=O)CCC(=O)O (stereo partly shown) [Compound 68, 26-succinate-neoboutomellerone] | 18 | 1 | 4 | 52 | – | – | – | –
8 | C=C(C(=O)[C@H](O)[C@@H](C)[C@H]1[C@@H](OC(C)=O)C[C@@]2(C)C3CCC4[C@H](C)C(=O)C=C[C@@]45C[C@@]35CC[C@]12C)[C@@H](C)COC(=O)CCC(=O)O (stereo partly shown) [Compound 71, 26-succinate-22-deacetyl-neoboutomellerone] | 11 | 6 | 4 | 62 | – | – | – | –
9 | C=C(C(=O)[C@H](OC(=O)CCC(=O)O)[C@@H](C)[C@H]1[C@@H](OC(C)=O)C[C@@]2(C)C3CCC4[C@H](C)C(=O)C=C[C@@]45C[C@@]35CC[C@]12C)[C@@H](C)COC(C)=O (stereo partly shown) [Compound 74, 22-deacetyl-22-succinate-26-acetyl-neoboutomellerone N-methylglucamine salt] | 14 | – | 2 | 60 | – | – | – | –
10 | C=C(C(=O)[C@H](OC(C)=O)[C@@H](C)[C@H]1[C@@H](OC(C)=O)C[C@@]2(C)C3CCC4[C@H](C)C(=O)C=C[C@@]45C[C@@]35CC[C@]12C)[C@@H](C)COC1(C)OC2OC(COC(C)=O)C(OC(C)=O)C(OC(C)O)C2O1 (stereo partly shown) [Compound 82, Neoboutomellerone 26-(2,3,4,6-tetraacetyl-glucosylate)] | 59 | – | 48 | 2 | – | – | – | –
11 | CC(=O)O[C@H]1C[C@@]2(C)[C@@H]3CC[C@H]4[C@H](C)C(=O)C=C[C@@]45C[C@@]35CC[C@]2(C)[C@H]1[C@H](C)[C@@H](OC(C)=O)C12OCC(C)C1Cc1ccc(O)cc1O2 (stereo partly shown) [Compound 88, Neoboutomellerone Resorcinol Derivative] | 47 | – | 78 | 1 | – | – | – | –
12 | C=C(C(=O)[C@H](OC(C)=O)[C@@H](C)[C@H]1[C@@H](OC(C)=O)C[C@@]2(C)C3CCC4[C@H](C)C(=O)C=C[C@@]45C[C@@]35CC[C@]12C)[C@@H](C)COP(=O)(O)O (stereo partly shown) [Compound 89, 26-phosphate-neoboutomellerone] | 3 | – | 40 | 1 | – | – | – | –
13 | C=C(C(=O)[C@H](OC(C)=O)[C@@H](C)[C@H]1[C@@H](OC(C)=O)C[C@@]2(C)[C@@H]3CC[C@H]4[C@H](C)C(=O)C=C[C@@]45C[C@@]35CC[C@]12C)[C@@H](C)COP(=O)(O)O [Compound 90, 26-phosphate-neoboutomellerone N-methyl Glutamine Salt] | 4 | – | 51 | 1 | – | – | – | –
14 | C=C(C(=O)[C@H](OC(C)=O)[C@@H](C)[C@H]1[C@@H](OC(C)=O)C[C@@]2(C)C3CCC4[C@H](C)C(=O)C=C[C@@]45C[C@@]35CC[C@]12C)[C@@H](C)COP(=O)(OCC)OCC (stereo partly shown) [Compound 92, 26-(diethylphosphate)-neoboutomellerone] | 16 | 3 | 2 | 43 | – | – | – | –
15 | CC[C@H](C)[C@H](NC(=O)[C@H]([C@@H](C)CC)N(C)C(C)=O)C(=O)N[C@H](C(=O)N[C@@H](CC(C)C)C(=O)[C@@]1(C)CO1)[C@@H](C)O [epoxomicin, reference compound] | – | – | – | – | – | – | – | 100

Reference: patent US8785424B2, “ngCycloartanone derivatives with anticancer activity” (Pierre Fabre Medicament, priority 2009, dated 2014)
